Source: patent publication US8414914B2, “Compositions for mucosal delivery of agents” (Virun, Inc., priority 2004, dated 2013)

Assay: IV study in dogs: plasma insulin and glucose after IV injection of human insulin
Format: in vivo, Mongrel dogs
Protocol: Oral bioavailability of insulin composition was determined using an IV study followed by an oral crossover study and the relative areas of under the curve, plasma half life, Cmax, and Tmax was calculated. […] Following data collection, plasma concentration, plasma half-life, peak concentration (Cmax) and time to reach Cmax (tmax) were determined. From the areas under the curve, percent oral bioavailability was determined.

[1] = dog #71, IV 0.01 mg/kg, 120 min
[2] = dog #71, IV 0.01 mg/kg, 180 min
[3] = dog #71, IV 0.01 mg/kg, 240 min
[4] = dog #72, IV 0.01 mg/kg, 120 min
[5] = dog #72, IV 0.01 mg/kg, 180 min
[6] = dog #72, IV 0.01 mg/kg, 240 min

Substance: human insulin: human insulin given by IV injection (0.01 mg/kg) as reference in the dog study
- Plasma Glucose (dog #71, IV 0.01 mg/kg, 2 min): 89 mg/dL
- Plasma Insulin (dog #71, IV 0.01 mg/kg, 2 min): 50.2 ng/mL
- Plasma Glucose (dog #71, IV 0.01 mg/kg, 5 min): 82 mg/dL
- Plasma Insulin (dog #71, IV 0.01 mg/kg, 5 min): 26.6 ng/mL
- Plasma Glucose (dog #71, IV 0.01 mg/kg, 10 min): 57 mg/dL
- Plasma Glucose (dog #71, IV 0.01 mg/kg, 15 min): 46 mg/dL
- Plasma Insulin (dog #71, IV 0.01 mg/kg, 15 min): 10.1 ng/mL
- Plasma Glucose (dog #71, IV 0.01 mg/kg, 20 min): 41 mg/dL
- Plasma Glucose (dog #71, IV 0.01 mg/kg, 25 min): 42 mg/dL
- Plasma Insulin (dog #71, IV 0.01 mg/kg, 25 min): 5.9 ng/mL
- Plasma Glucose (dog #71, IV 0.01 mg/kg, 40 min): 39 mg/dL
- Plasma Glucose (dog #71, IV 0.01 mg/kg, 60 min): 48 mg/dL
- Plasma Glucose [1]: 69 mg/dL
- Plasma Insulin [1]: 0.19 ng/mL
- Plasma Glucose [2]: 87 mg/dL
- Plasma Insulin [2]: 0.08 ng/mL
- Plasma Glucose [3]: 86 mg/dL
- Plasma Insulin [3]: 0.08 ng/mL
- Plasma Glucose (dog #72, IV 0.01 mg/kg, 2 min): 89 mg/dL
- Plasma Insulin (dog #72, IV 0.01 mg/kg, 2 min): 27.3 ng/mL
- Plasma Glucose (dog #72, IV 0.01 mg/kg, 5 min): 60 mg/dL
- Plasma Insulin (dog #72, IV 0.01 mg/kg, 5 min): 21.4 ng/mL
- Plasma Glucose (dog #72, IV 0.01 mg/kg, 10 min): 31 mg/dL
- Plasma Glucose (dog #72, IV 0.01 mg/kg, 15 min): 28 mg/dL
- Plasma Glucose (dog #72, IV 0.01 mg/kg, 20 min): 35 mg/dL
- Plasma Insulin (dog #72, IV 0.01 mg/kg, 20 min): 3.4 ng/mL
- Plasma Glucose (dog #72, IV 0.01 mg/kg, 25 min): 24 mg/dL
- Plasma Glucose (dog #72, IV 0.01 mg/kg, 40 min): 21 mg/dL
- Plasma Insulin (dog #72, IV 0.01 mg/kg, 40 min): 0.7 ng/mL
- Plasma Glucose (dog #72, IV 0.01 mg/kg, 60 min): 33 mg/dL
- Plasma Insulin (dog #72, IV 0.01 mg/kg, 60 min): 0.2 ng/mL
- Plasma Glucose [4]: 68 mg/dL
- Plasma Insulin [4]: 0.04 ng/mL
- Plasma Glucose [5]: 102 mg/dL
- Plasma Insulin [5]: 0 ng/mL
- Plasma Glucose [6]: 99 mg/dL
- Plasma Insulin [6]: 0.04 ng/mL
